According to US9751887B2, “Imidazo[1,2-b]pyridazine derivatives as kinase inhibitors” (Daiichi Sankyo Company, Limited, priority 2012, dated 2017):

Assays:
[1] = molecular target: T1, NTRK2 (Homo sapiens, UniProt Q16620); assay: NTRK kinase enzyme inhibitory activity evaluation, NTRK2; assay type: biochemical; conditions: FL-Peptide 27 substrate, ATP Km=63 μM, three separate measurements
T1 construct: purchased Carna Biosciences 08-187
Experimental: (§1) NTRK1, NTRK2, and NTRK3 kinase solutions were each prepared. […]; Next, a substrate reaction solution was prepared.
(§2) Subsequently, a reaction stop solution was prepared. The composition is as follows: 100 mM HEPES (pH 7.4), 0.015% Brij-35, 40 mM EDTA, and 0.1% Coating Reagent 3 (Caliper Life Sciences #760050).
(§3) The NTRK1, NTRK2, and NTRK3 kinase solutions were each added at a concentration of 19 μL/well to a 96-well plate. Each compound for evaluation dissolved in DMSO to achieve each final concentration was added to the plate, mixed using a plate mixer, and then preincubated at room temperature for 20 minutes. […] Then, the reaction stop solution was added thereto at a concentration of 40 μL/well. Substrate phosphorylation intensity was measured using EZ Reader II (Caliper Life Sciences). IC50 values were calculated by curve fitting using Microsoft Excel 2010 on the basis of data obtained from three separate measurements.

[2] = molecular target: T2, NTRK1 (Homo sapiens, UniProt P04629); assay: NTRK kinase enzyme inhibitory activity evaluation, NTRK1; assay type: biochemical; conditions: FL-Peptide 27 substrate, ATP Km=33 μM, three separate measurements
T2 construct: purchased Carna Biosciences 08-186
Experimental: as §1, §2, §3

[3] = molecular target: T3, NTRK3 (Homo sapiens, UniProt Q16288); assay: NTRK kinase enzyme inhibitory activity evaluation, NTRK3; assay type: biochemical; conditions: FL-Peptide 27 substrate, ATP Km=32 μM, three separate measurements
T3 construct: purchased Carna Biosciences 08-197
Experimental: as §1, §2, §3

[4] = system: HCC78 cells having ROS1 fusion gene; assay: HCC78 cell growth assay (CellTiter-Glo); assay type: cell-based; conditions: Homo sapiens, HCC78, 72 h, 72 hours culture, 2% FBS medium, luminescence, four separate measurements; read-out: growth inhibitory effect on HCC78 cells having ROS1 fusion gene IC50
[5] = molecular target: T4, ROS1 (Homo sapiens, UniProt P08922); assay: ROS1 kinase inhibitory activity evaluation (mobility shift, EZ Reader II); assay type: biochemical; conditions: ROS1 25 pg/μL, FL-Peptide 22 substrate, three separate measurements
T4 construct: purchased Carna Biosciences 08-163
Experimental: Next, a substrate reaction solution was prepared. […] Then, the reaction stop solution was added thereto at a concentration of 40 μL/well. Substrate phosphorylation intensity was measured using EZ Reader II (Caliper Life Sciences).

[6] = molecular target: T4, ROS1; assay: ROS1 autophosphorylation inhibitory activity evaluation (ADP-Glo); assay type: biochemical; conditions: 200 nM inactive ROS1, ATP 1 mM, 25° C. 1.5 hours, ADP generated, four separate measurements
Method in brief: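 IC50 was derived by curve fitting of ADP output measured with ADP-Glo reagents. The output reflects ROS1 self-phosphorylation over 1.5 hours at 25° C. Buffer was HEPES pH 7.5 with MgCl2, Brij-58 and DTT, and ATP was 1 mM final.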

T2 sequence (P04629 33-796): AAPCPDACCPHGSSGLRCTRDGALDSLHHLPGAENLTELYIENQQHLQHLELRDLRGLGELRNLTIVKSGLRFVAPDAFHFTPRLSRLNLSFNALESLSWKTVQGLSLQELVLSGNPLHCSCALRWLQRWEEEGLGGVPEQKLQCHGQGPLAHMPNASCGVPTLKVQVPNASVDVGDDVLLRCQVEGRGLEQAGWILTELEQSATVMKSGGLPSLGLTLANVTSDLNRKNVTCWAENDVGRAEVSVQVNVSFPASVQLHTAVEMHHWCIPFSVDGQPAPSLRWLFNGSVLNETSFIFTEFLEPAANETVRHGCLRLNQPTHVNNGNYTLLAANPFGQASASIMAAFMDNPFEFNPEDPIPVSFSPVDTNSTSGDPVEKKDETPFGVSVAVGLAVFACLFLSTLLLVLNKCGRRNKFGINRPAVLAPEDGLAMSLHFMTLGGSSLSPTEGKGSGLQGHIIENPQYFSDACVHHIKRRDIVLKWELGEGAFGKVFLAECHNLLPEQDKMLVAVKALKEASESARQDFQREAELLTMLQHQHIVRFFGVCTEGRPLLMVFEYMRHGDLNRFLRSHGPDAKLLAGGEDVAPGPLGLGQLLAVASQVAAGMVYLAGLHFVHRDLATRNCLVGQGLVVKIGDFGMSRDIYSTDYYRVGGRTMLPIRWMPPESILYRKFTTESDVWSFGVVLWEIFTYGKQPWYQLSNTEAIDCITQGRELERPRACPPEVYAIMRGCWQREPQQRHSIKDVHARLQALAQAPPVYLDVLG
T4 sequence (P08922 28-2347): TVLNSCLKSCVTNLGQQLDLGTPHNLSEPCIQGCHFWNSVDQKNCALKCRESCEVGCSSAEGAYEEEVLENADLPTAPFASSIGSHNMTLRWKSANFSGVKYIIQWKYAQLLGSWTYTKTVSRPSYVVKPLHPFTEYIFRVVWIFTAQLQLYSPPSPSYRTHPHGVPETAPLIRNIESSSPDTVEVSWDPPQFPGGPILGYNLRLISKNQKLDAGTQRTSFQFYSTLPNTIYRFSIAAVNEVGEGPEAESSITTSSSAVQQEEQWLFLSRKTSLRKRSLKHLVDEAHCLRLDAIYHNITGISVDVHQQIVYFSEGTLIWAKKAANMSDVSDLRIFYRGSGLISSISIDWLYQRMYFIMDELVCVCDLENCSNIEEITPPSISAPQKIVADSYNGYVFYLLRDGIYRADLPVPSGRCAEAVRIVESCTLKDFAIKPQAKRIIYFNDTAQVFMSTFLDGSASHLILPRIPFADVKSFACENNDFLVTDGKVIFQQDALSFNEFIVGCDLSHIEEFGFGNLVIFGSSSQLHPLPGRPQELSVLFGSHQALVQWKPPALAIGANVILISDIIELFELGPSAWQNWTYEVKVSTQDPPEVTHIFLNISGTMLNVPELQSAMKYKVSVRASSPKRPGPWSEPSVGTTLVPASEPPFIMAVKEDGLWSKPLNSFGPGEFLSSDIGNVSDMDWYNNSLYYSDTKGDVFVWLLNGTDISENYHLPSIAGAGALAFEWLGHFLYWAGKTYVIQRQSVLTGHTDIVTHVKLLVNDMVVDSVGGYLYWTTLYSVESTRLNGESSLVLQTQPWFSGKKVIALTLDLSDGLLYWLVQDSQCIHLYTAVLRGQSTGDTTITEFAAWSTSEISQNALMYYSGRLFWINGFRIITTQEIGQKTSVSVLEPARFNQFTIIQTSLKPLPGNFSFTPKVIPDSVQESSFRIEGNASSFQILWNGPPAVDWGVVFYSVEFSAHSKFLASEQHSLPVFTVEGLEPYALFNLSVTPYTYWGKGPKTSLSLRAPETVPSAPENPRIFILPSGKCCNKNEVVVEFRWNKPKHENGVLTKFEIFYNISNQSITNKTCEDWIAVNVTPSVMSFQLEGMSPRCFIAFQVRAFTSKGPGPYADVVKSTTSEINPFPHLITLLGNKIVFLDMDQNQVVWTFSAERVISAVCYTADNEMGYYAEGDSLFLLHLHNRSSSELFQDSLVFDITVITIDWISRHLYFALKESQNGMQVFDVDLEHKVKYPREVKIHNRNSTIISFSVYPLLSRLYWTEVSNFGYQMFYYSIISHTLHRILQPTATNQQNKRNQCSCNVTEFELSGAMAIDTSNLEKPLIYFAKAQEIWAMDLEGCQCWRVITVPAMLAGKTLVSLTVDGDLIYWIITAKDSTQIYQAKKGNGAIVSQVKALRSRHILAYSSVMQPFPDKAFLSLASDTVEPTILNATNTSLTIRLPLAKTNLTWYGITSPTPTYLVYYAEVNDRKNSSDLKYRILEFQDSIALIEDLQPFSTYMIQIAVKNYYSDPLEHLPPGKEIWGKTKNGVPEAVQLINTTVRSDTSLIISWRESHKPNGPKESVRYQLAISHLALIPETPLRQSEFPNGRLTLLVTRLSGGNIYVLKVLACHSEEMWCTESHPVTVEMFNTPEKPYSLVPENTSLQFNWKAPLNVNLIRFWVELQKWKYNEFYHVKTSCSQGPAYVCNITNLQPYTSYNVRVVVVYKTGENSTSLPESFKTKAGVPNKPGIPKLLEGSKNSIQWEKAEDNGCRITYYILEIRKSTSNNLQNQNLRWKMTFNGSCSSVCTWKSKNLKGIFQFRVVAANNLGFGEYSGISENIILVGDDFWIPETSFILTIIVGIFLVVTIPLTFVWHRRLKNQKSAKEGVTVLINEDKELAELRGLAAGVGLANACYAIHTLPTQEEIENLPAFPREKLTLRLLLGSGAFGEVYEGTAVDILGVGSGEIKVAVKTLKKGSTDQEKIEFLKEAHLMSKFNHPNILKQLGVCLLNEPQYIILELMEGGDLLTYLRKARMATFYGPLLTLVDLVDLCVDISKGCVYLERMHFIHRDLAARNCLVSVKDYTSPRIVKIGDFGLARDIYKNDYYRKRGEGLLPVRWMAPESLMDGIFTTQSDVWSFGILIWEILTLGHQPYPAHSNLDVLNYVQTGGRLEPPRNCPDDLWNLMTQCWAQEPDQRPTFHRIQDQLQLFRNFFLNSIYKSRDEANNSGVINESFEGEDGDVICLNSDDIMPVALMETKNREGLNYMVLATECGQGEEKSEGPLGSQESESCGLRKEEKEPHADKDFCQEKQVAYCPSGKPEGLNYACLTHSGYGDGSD
T1 sequence (Q16620 32-822): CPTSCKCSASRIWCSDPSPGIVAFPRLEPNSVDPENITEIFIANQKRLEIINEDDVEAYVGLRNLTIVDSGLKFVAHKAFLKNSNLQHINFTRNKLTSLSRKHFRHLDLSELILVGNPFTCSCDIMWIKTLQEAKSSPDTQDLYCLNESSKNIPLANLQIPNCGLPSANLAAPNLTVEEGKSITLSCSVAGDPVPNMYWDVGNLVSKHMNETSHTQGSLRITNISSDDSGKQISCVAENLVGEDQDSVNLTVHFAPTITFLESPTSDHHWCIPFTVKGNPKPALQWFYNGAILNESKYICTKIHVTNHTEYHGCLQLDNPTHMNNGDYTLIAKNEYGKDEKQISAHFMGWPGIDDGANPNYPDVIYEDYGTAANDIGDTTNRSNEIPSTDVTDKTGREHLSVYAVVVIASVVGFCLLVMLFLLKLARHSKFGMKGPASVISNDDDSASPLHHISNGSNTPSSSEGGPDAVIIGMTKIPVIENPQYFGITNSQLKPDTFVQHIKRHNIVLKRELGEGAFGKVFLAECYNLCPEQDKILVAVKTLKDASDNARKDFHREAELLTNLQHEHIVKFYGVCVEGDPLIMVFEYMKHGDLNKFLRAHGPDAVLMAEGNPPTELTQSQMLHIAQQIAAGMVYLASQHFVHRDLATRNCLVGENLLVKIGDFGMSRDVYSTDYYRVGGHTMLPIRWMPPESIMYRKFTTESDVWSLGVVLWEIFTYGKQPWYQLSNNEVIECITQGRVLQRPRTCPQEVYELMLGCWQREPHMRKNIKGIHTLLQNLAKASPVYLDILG
T3 sequence (Q16288 32-839): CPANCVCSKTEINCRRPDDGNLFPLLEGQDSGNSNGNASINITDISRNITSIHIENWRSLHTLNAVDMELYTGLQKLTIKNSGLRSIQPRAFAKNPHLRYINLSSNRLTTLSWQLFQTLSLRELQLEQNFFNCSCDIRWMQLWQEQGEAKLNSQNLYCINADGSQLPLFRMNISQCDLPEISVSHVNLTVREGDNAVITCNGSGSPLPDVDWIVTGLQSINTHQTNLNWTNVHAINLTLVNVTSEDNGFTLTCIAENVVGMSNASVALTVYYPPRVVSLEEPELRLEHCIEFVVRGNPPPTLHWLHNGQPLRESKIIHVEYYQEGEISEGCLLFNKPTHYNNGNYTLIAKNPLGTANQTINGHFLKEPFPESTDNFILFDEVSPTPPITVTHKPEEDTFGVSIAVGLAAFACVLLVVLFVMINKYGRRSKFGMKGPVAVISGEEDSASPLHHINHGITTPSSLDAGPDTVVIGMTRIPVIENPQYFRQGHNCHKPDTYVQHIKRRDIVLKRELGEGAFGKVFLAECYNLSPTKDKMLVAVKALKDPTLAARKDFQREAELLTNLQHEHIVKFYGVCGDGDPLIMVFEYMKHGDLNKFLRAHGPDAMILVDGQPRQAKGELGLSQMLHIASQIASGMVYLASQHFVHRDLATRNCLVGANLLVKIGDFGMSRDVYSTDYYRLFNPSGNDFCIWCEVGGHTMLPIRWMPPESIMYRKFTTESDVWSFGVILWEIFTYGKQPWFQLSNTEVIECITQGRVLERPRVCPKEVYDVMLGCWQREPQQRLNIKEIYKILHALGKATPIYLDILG

SMILES	IC50 [1] [nM]	IC50 [2] [nM]	IC50 [3] [nM]	IC50 [4] [nM]	IC50 [5] [nM]	IC50 [6] [nM]
C[C@@H](Nc1ccc2ncc(-c3ccc(OC[C@@H]4C[C@H](F)CN4)nc3)n2n1)c1cccc(F)c1 [Example 47, N-[(1R)-1-(3-Fluorophenyl)ethyl]-3-[6-[[(2S,4S)-4-fluoropyrrolidin-2-yl]methoxy]-3-pyridyl]imidazo[1,2-b]pyridazin-6-amine]				< 20	< 1	< 20
C[C@@H](Nc1ccc2ncc(-c3ccc(OCCN(C)C)nc3)n2n1)c1cccc(F)c1 [Example 71, 3-[6-(2-Dimethylaminoethoxy)-3-pyridyl]-N-[(1R)-1-(3-fluorophenyl)ethyl]imidazo[1,2-b]pyridazin-6-amine]				< 20	1 to 10	< 20
C[C@@H](N)COc1cccc(-c2cnc3ccc(N[C@H](C)c4cccc(F)c4)nn23)c1 [Example 60, 3-[3-[(2R)-2-Aminopropoxy]phenyl]-N-[(1R)-1-(3-fluorophenyl)ethyl]imidazo[1,2-b]pyridazin-6-amine]				20 to 100	1 to 10	< 20
CN(Cc1cncc(F)c1)c1ccc2ncc(-c3ccc(N4CC(C)(N)CC4=O)cc3)n2n1 (stereo not shown) [Example 119, 4-Amino-1-[4-[6-[(5-fluoro-3-pyridyl)methyl-methylamino]imidazo[1,2-b]pyridazin-3-yl]phenyl]-4-methylpyrrolidin-2-one]				< 20	1 to 10	< 20
c1ccc(CNc2ccc3ncc(-c4ccc(O[C@@H]5CCNC5)cc4)n3n2)cc1 [Example 3, N-Benzyl-3-[4-[(3R)-pyrrolidin-3-yl]oxyphenyl]imidazo[1,2-b]pyridazin-6-amine]				20 to 100	1 to 10	20 to 100
Cc1cc(N2C[C@@H](N)CC2=O)ccc1-c1cnc2ccc(N[C@H](C)c3ccccc3)nn12 [Example 89, (4S)-4-Amino-1-[3-methyl-1-[6-[[(1R)-1-phenylethyl]amino]imidazo[1,2-b]yl]phenyl]pyrrolidin-2-one]				100 to 600	10 to 60	20 to 100
CC[C@@H](N)COc1ccc(-c2cnc3ccc(N[C@H](C)c4cccc(F)c4)nn23)cc1 [Example 52, 3-[4-[(2R)-2-Aminobutoxy]phenyl]-N-[(1R)-1-(3-fluorophenyl)ethyl]imidazo[1,2-b]pyridazin-6-amine]				20 to 100	< 1	< 20
CN1CCC[C@H]1COc1cccc(-c2cnc3ccc(NCc4ccccc4)nn23)c1 [Example 8, N-Benzyl-3-[3-[[(2S)-1-methylpyrrolidin-2-yl]methoxy]phenyl]imidazo[1,2-b]pyridazin-6-amine]				20 to 100	1 to 10	20 to 100
CN(Cc1cncc(F)c1)c1ccc2ncc(-c3ccc(N4CC(C)(N)CC4=O)cc3)n2n1 (single isomer, unassigned) [Example 124, 4-Amino-1-[4-[6-[(5-fluoro-3-pyridyl)methyl-methylamino]imidazo[1,2-b]pyridazin-3-yl]phenyl]-4-methylpyrrolidin-2-one]				< 20	1 to 10	< 20
CNCCOc1cccc(-c2cnc3ccc(N[C@H](C)c4cccc(F)c4)nn23)c1 [Example 58, N-[(1R)-1-(3-Fluorophenyl)ethyl]-3-[3-[2-(methylamino)ethoxy]phenyl]imidazo[1,2-b]pyridazin-6-amine]				20 to 100	1 to 10	< 20
c1ccc(CNc2ccc3ncc(-c4cccc(OC[C@@H]5CCCN5)c4)n3n2)cc1 [Example 2, N-Benzyl-3-[3-[[(2S)-pyrrolidin-2-yl]methoxy]phenyl]imidazo[1,2-b]pyridazin-6-amine]				100 to 600	1 to 10	20 to 100
C[C@@H](Nc1ccc2ncc(-c3cccc(OC[C@@H]4CCCN4)c3)n2n1)c1cccc(F)c1 [Example 50, N-[(1R)-1-(3-Fluorophenyl)ethyl]-3-[3-[[(2S)-pyrrolidin-2-yl]methoxy]phenyl]imidazo[1,2-b]pyridazin-6-amine]				20 to 100	< 1	< 20
C[C@@H](Nc1ccc2ncc(-c3ccc(OC[C@@H]4CCCN4)cc3)n2n1)c1ccccc1 [Example 19, N-[(1R)-1-Phenylethyl]-3-[4-[[(2S)-pyrrolidin-2-yl]methoxy]phenyl]imidazo[1,2-b]pyridazin-6-amine]				100 to 600	1 to 10	< 20

The next lines start with the values.

IC50 [1] [nM]	IC50 [2] [nM]	IC50 [3] [nM]	IC50 [4] [nM]	IC50 [5] [nM]	IC50 [6] [nM]	SMILES
< 10	< 5	< 5	< 20			C[C@@H](N)COc1ccc(-c2cnc3ccc(N[C@H](C)c4cccc(F)c4)nn23)cc1 [Example 21, 3-[4-[(2R)-2-Aminopropoxy]phenyl]-N-[(1R)-1-(3-fluorophenyl)ethyl]imidazo[1,2-b]pyridazin-6-amine]
< 10	< 5	< 5	< 20			C[C@H](N)COc1ccc(-c2cnc3ccc(N[C@H](C)c4cccc(F)c4)nn23)cc1 [Example 41, 3-[4-[(2S)-2-Aminopropoxy]phenyl]-N-[(1R)-1-(3-fluorophenyl)ethyl]imidazo[1,2-b]pyridazin-6-amine]
< 10	< 5	< 5	< 20	< 1		C[C@@H](Oc1ccc2ncc(-c3ccc(N4C[C@@H](N)CC4=O)cc3)n2n1)c1cccc(F)c1 [Example 79, (4S)-4-Amino-1-[4-[6-[(1R)-1-(3-fluorophenyl)ethoxy]imidazo[1,2-b]pyridazin-3-yl]phenyl]pyrrolidin-2-one]
			< 20	< 1	< 20	NC1CC(=O)N(c2ccc(-c3cnc4ccc(NCc5ccccc5)nn34)cc2)C1 (stereo not shown) [Example 72, 4-Amino-1-[4-[6-(benzylamino)imidazo[1,2-b]pyridazin-3-yl]phenyl]pyrrolidin-2-one]
			20 to 100	< 1	20 to 100	C[C@@H](Nc1ccc2ncc(-c3ccc(OCCNC4CC4)cc3)n2n1)c1cccc(F)c1 [Example 37, 3-[4-[2-(Cyclopropylamino)ethoxy]phenyl]-N-[(1R)-1-(3-fluorophenyl)ethyl]imidazo[1,2-b]pyridazin-6-amine]
			20 to 100	1 to 10	< 20	C[C@@H](Oc1ccc2ncc(-c3ccc(N4C[C@H](N)CC4=O)cc3)n2n1)c1cccc(F)c1 [Example 78, (4R)-4-Amino-1-[4-[6-[(1R)-1-(3-fluorophenyl)ethoxy]imidazo[1,2-b]pyridazin-3-yl]phenyl]pyrrolidin-2-one]
			< 20	1 to 10	20 to 100	CN(Cc1cc(F)ccc1F)c1ccc2ncc(-c3ccc(N4C[C@@H](N)CC4=O)cc3)n2n1 [Example 97, (4S)-4-Amino-1-[4-[6-[(2,5-difluorophenyl)methyl-methylamino]imidazo[1,2-b]pyridazin-3-yl]phenyl]pyrrolidin-2-one]
			20 to 100	1 to 10	20 to 100	CN(Cc1cc(F)ccc1Cl)c1ccc2ncc(-c3ccc(N4C[C@@H](N)CC4=O)cc3)n2n1 [Example 99, (4S)-4-Amino-1-[4-[6-[(2-chloro-5-fluorophenyl)methyl-methylamino]imidazo[1,2-b]pyridazin-3-yl]phenyl]pyrrolidin-2-one]
			20 to 100	< 1	< 20	CN[C@H]1CC(=O)N(c2ccc(-c3cnc4ccc(O[C@H](C)c5cccc(F)c5)nn34)cc2)C1 [Example 80, (4S)-1-[4-[6-[(1R)-1-(3-Fluorophenyl)ethoxy]imidazo[1,2-b]pyridazin-3-yl]phenyl]-4-(methylamino)pyrrolidin-2-one]
			20 to 100	1 to 10	< 20	CCN(Cc1cccc(F)c1)c1ccc2ncc(-c3ccc(N4C[C@@H](N)CC4=O)cc3)n2n1 [Example 100]
			100 to 600	1 to 10	20 to 100	C[C@@H](Oc1ccc2ncc(-c3ccc(N4C[C@@H](N(C)C)CC4=O)cc3)n2n1)c1cccc(F)c1 [Example 135, (4S)-4-(Dimethylamino)-1-[4-[6-[(1R)-1-(3-fluorophenyl)ethoxy]imidazo[1,2-b]pyridazin-3-yl]phenyl]pyrrolidin-2-one]
